Results reported in patent US20120189670A1, “PHARMACEUTICAL COMPOSITIONS AND FORMULATIONS INCLUDING INHIBITORS OF THE PLECKSTRIN HOMOLOGY DOMAIN AND METHODS FOR USING SAME” (priority 2009, published 2012).
≈ marks a conversion by molar mass, not a printed value. Like-named read-outs stand apart in the source and are kept apart here. Each block holds one compound with its values, some of them ahead of it.

Tests used:
[1] = pH solubility profile / pKa; format: physicochemical; settings: aqueous buffer solutions, from pH-solubility profile
Protocol: These samples were then rotated at room temperature for 24 hours. After rotation, if there was no evidence of precipitated compound, additional compound 104 was added and the dissolution processes were repeated. […] HPLC Assay. […] The run time was 5 minutes and the injection volume was 2 μL.

[2] = tested on: MiaPaca-2 pancreatic cell line; experiment: Apoptosis, morphological assay, MiaPaca-2; format: cell-based, human; settings: MiaPaca-2, 20 μmol/L
Source text: (§1) AKT inhibition leads to cellular apoptosis.

SKOV-3 ovarian cancer = experiment: Antitumor activity, oral gavage, SKOV-3 xenograft; format: in vivo, mouse; settings: SKOV-3, 250 mg/kg BID × 10 D oral
IRS1 PH domain = molecular target: T1, IRS1 PH domain (Homo sapiens, UniProt P35568); experiment: SPR direct binding, KD, IRS1 PH domain; settings: Table 10, SPR; for Kd: read-out: 1RS1 PH mKD
T1 sequence (P35568 12-115 limits assumed): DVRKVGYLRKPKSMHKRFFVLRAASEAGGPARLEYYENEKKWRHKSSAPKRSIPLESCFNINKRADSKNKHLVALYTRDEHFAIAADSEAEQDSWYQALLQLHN
Protocol: (§2) Binding assays using SPR and an ELISA competitive binding assay were used to measure the binding affinity (KD) of the compounds to all three PH domains. SPR was carried out as described above. […] Purified GST-PH domains were incubated with increasing concentrations of the compounds under analysis for about 4 hours in 0.2 M carbonate buffer pH 9.4 and were added to the 96-well plate and incubated overnight at 4° C. Following incubation, the plate was washed 4 times with phosphate buffered 0.9% NaCl (PBS), blocked with 3% bovine serum albumin (BSA) in PBS and 0.01% Tween for 1 hour, washed again 4 times with PBS and mouse monoclonal anti-glutathione-S-transferase antibody in 3% BSA (1:2000) was added for 1 hr at room temperature with shaking. The plate was washed 4 times with PBS and an anti-mouse IgG horseradish peroxidase coupled antibody (dilution 1:2000 in 3% BSA) was added for 1 hr. After 4 washes with PBS, 2,2′-azinobis[3-ethylbenzothiazoline-6-sulfonic acid]-diammonium salt (ABST) was added and the reaction was allowed to develop for 30 min.

Solubility (Table 11) = format: physicochemical
[3] = molecular target: T2, AKT (phospho-Ser^473 AKT) in HT-29 colon cancer cells (Homo sapiens, UniProt P31749); experiment: Inhibition of phospho-Ser473 AKT in HT-29 colon cancer cells (Table 11); format: cell-based; settings: human HT-29 colon cancer cells
T2 construct: endogenous in cells; host or cells: HT-29
Protocol: AKT activity was measured by Western blotting using anti-phosphoSer437 AKT antibody. Downstream targets of AKT were detected also by Western blotting using specific anti-phospho antibodies and anti-actin was used as a loading control.
AKT activity was measured by Western blotting using anti-phospho-[…] AKT antibody, PDK activity by anti-phospho-Ser241 PDK antibody as well as downstream target PKC using pan-phospho PKC antibodies. Anti-actin was used as a loading control.

HT-29 cells = experiment: Cytotoxicity in HT-29 cells; format: cell-based, human
[4] = Cytotoxicity in HT-29 cells; format: cell-based, human; settings: human
[5] = Metabolic stability, incubation with HT-29 cells; format: in vitro ADME; settings: human
Source text: Compound 6 was too insoluble to obtain data.

[6] = tested on: Panc-1 pancreatic cell line; experiment: Apoptosis, morphological assay, Panc-1; format: cell-based, human; settings: Panc-1, 20 μmol/L
Source text: as §1

[7] = tested on: MiaPaca-2 pancreatic cell line; experiment: MTT cell survival, MiaPaca-2; format: cell-based; settings: Homo sapiens, MIA PaCa-2; MiaPaca-2, MTT
Source text: as §1

[8] = tested on: Panc-1 pancreatic cell line; experiment: MTT cell survival, Panc-1; format: cell-based; settings: Homo sapiens; Panc-1, MTT
[9] = molecular target: T3, AKT (phospho-Ser^473 AKT) in NIH3T3 cells (Mus musculus, UniProt P31750); experiment: Inhibition of phospho-Ser473 AKT in NIH3T3 cells; format: cell-based
T3 construct: endogenous in cells; host or cells: NIH3T3
Protocol: […]. […] AKT activity was measured by Western blotting using anti-phosphoSer437 AKT antibody. Downstream targets of AKT were detected also by Western blotting using specific anti-phospho antibodies and anti-actin was used as a loading control.

PH domain of PDK1 = molecular target: T4, PH domain of PDK1 (Homo sapiens, UniProt O15530); experiment: SPR direct binding, KD, PDK1 PH domain; settings: Table 10, SPR; read-out: PDK1 PH mKD
T4 sequence (O15530 459-550 limits assumed): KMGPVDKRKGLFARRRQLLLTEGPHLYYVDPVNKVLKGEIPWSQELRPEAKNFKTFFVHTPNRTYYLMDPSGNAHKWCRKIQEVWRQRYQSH
Protocol: as §2

pancreatic cancer cells = experiment: Cell viability assay (Table 3); settings: viability assay; cell line not given
[10] = molecular target: AKT (phospho-Ser-AKT) in HT-29 xenograft tumors (Homo sapiens, UniProt P31749); experiment: Tumor phospho-Ser-AKT in HT-29 xenografts; format: in vivo, mouse; settings: 4 hours after a single 250 mg/kg dose
[11] = format: in vivo
[12] = Pharmacokinetics of compound 316 in scid mice; format: in vivo, mouse
HT-29 lung cancer cells = experiment: MTT cell survival in HT-29 cells (Table 2); format: cell-based; settings: Homo sapiens
[13] = molecular target: T5, AKT (phospho-Ser^473-AKT) in HT-29 lung cancer cells (Homo sapiens, UniProt P31749); experiment: Western blot phospho-Ser473-AKT in HT-29 cells (Table 2); format: cell-based; settings: read-out: AKT inhibition (IC50)
T5 construct: endogenous in cells; host or cells: HT-29
Source text: as §1

AKT PH domain [14] = molecular target: T6, AKT PH domain (Homo sapiens, UniProt P31749); settings: purified AKT PH domain, SPR
AKT PH domain [15] = molecular target: T6, AKT PH domain; experiment: SPR direct binding (Biacore 2000), KD; set-up: made in house; settings: purified AKT PH domain
Protocol: as §2

[16] = incubating with HT-29 cells at maximum DMEM concentration at 37° C., read-out: Metabolic half life
[17] = HT-29 cell culture conditions, read-out: half lives under cell culture conditions

T3 sequence (P31750 whole entry): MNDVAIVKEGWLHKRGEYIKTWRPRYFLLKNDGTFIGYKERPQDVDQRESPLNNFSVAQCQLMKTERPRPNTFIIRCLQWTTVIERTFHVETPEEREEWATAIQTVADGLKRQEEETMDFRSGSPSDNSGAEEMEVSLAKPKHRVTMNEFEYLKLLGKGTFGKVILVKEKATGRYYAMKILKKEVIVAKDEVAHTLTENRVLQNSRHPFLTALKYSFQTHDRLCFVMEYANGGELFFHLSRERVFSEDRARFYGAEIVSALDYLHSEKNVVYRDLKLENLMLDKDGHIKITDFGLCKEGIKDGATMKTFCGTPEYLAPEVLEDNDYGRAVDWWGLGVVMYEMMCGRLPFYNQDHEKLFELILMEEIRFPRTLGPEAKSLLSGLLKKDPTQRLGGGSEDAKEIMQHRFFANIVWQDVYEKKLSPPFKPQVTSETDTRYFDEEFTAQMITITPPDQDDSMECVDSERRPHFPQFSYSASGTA
T2 sequence (P31749 whole entry): as the sequence (P31750 whole entry) above, with N2S, S50A, A100T, R112K, T117E, T389K, N410G, D415H counted along it
T6 sequence (P31749 5-108 limits assumed): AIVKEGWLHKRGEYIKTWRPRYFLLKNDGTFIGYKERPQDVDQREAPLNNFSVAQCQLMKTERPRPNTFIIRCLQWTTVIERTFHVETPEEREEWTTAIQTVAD
Chain of AKT (phospho-Ser-AKT) in HT-29 xenograft tumors (P31749 whole entry): as the sequence (P31750 whole entry) above, with N2S, S50A, A100T, R112K, T117E, T389K, N410G, D415H counted along it
T5 sequence (P31749 whole entry): as the sequence (P31750 whole entry) above, with N2S, S50A, A100T, R112K, T117E, T389K, N410G, D415H counted along it

SMILES: CCCCCCCCCCCCc1ccc(S(=O)(=O)Nc2nncs2)cc1 [Compound 104, 4-Dodecyl-N-(1,3,4-thiadiazol-2-yl)benzenesulfonamide]
pKa ([1]; read-out: acidic pKa): 7.9 to 8.3
pKa ([1]; read-out: additional pKa): > 9
Apoptosis at 20 μmol/L [2]: 31.3 ± 1.6%
Growth rate (SKOV-3 ovarian cancer): 122 ± 16 mm^3/10 days
T/C (SKOV-3 ovarian cancer): 28.3%

SMILES: CCCCCCCCCC(=O)Nc1ccc(S(=O)(=O)Nc2nncs2)cc1 [Compound 101, N-(4-(N-1,3,4-Thiadiazol-2-ylsulfamoyl)phenyl)decanamide]
Apoptosis at 20 μmol/L [2]: 20.0 ± 1.5%
Apoptosis at 20 μmol/L [6]: 28.7 ± 0.3/ %
IC50 [7]: 90 µM
IC50 [8]: 127 µM

SMILES: COCCOCCOCC(=O)Nc1ccc(S(=O)(=O)Nc2nncs2)cc1 [Compound 103]
Apoptosis at 20 μmol/L [2]: 18.7 ± 3.1%
Apoptosis at 20 μmol/L [6]: 11.4 ± 0.5/ %
IC50 [7]: > 100 µM
IC50 [8]: > 100 µM

SMILES: Nc1ccc(S(=O)(=O)Nc2nncs2)cc1 [Compound 100, 4-Amino-N-(1,3,4-thiadiazol-2-yl)benzenesulfonamide]
Apoptosis at 20 μmol/L [2]: 25.7 ± 2.6%
Apoptosis at 20 μmol/L [6]: 24.3 ± 3.2/ %
IC50 [7]: > 100 µM
Cell viability (IC50) (pancreatic cancer cells): N/I
IC50 [8]: > 100 µM

SMILES: CC1=NN(C(=O)c2ccc(Cl)cc2)C(=O)C1/N=N/c1ccc(S(=O)(=O)Nc2ncccn2)cc1 (centres unmarked) [Compound 316, (E)-4-((1-(4-chlorobenzoyl)-3-methyl-5-oxo-4,5-dihydro-1H-pyrazol-4-yl)diazenyl)-N-(pyrimidin-2-yl)benzenesulfonamide]
tumor phospho-Ser-AKT [10]: inhibition of tumor phospho-Ser-AKT was observed
toxicity of repeated doses ([11]; five daily doses of 250 mg/kg i.p.): moderate neutropenia
toxicity of a single dose ([11]; single dose of up to 250 mg/kg i.p.): no toxicity
solubility (Solubility (Table 11)): 17.9 µM (≈ 8.91 µg/mL)
peak plasma concentration ([12]; single dose 250 mg/kg i.p.): 1.4 nM
peak plasma concentration ([12]; single dose 250 mg/kg oral): 600 nM
IC50 [9]: 4 µM
half-life [5, 17]: 1 to 2 h
half-life [5, 16]: 1.03 h

SMILES: CC(=O)Nc1ccc(S(=O)(=O)Nc2nncs2)cc1 [Compound 102, N-(4-(N-1,3,4-Thiadiazol-2-ylsulfamoyl)phenyl)acetamide]
IC50 [7]: > 100 µM
IC50 [8]: > 100 µM
KD (AKT PH domain [15]): did not appear to bind

Continued, in another order:

1RS1 PH mKD (IRS1 PH domain): low KD
Kd (IRS1 PH domain): 0.14 ± 0.02 µM
solubility (Solubility (Table 11)): 12.9 µM (≈ 6.17 µg/mL)
IC50 [3]: > 20 µM
half-life [5, 16]: > 8 h
SMILES: CC1=NN(C(=O)c2ccc(N)cc2)C(=O)C1/N=N/c1ccc(S(=O)(=O)Nc2ncccn2)cc1 (centres unmarked) [Compound 333]
Cytotoxicity (IC50 μM) (HT-29 cells): no cytotoxicity
IC50 [4]: > 100 µM

solubility (Solubility (Table 11)): 28.6 µM (≈ 14.9 µg/mL)
IC50 [3]: > 20 µM
IC50 [9]: > 20 µM
half-life [5, 17]: 1 to 2 h
half-life [5, 16]: 1.52 h
SMILES: CC1=NN(C(=O)c2ccc(C(C)(C)C)cc2)C(=O)C1/N=N/c1ccc(S(=O)(=O)Nc2ncccn2)cc1 (centres unmarked) [Compound 332]
IC50 [4]: 25 µM

1RS1 PH mKD (IRS1 PH domain): low KD
Kd (IRS1 PH domain): 1.74 ± 0.41 µM
Kd (PH domain of PDK1): 0.42 µM
solubility (Solubility (Table 11)): 13.1 µM (≈ 6.28 µg/mL)
IC50 [3]: > 20 µM
IC50 [9]: 5 µM
half-life [5, 17]: 1 to 2 h
half-life [5, 16]: 2.3 h
SMILES: CC1=NN(C(=O)c2ccc(O)cc2)C(=O)C1/N=N/c1ccc(S(=O)(=O)Nc2ncccn2)cc1 (centres unmarked) [Compound 360]
Cytotoxicity (IC50 μM) (HT-29 cells): no cytotoxicity
IC50 [4]: > 100 µM

IC50 [13]: 5 µM
SMILES: O=C(O)c1ccccc1C(=O)Nc1ccccc1SCCS(=O)(=O)c1ccc(Cl)cc1 [Compound 389]
IC50 (HT-29 lung cancer cells): > 100 µM

Ki (AKT PH domain [14]): ~0.3 µM
SMILES: CCCCCCCC(=O)OC[C@H](COP(=O)(O)O[C@H]1[C@H](O)[C@@H](OP(=O)(O)O)[C@H](OP(=O)(O)O)[C@@H](OP(=O)(O)O)[C@H]1O)OC(=O)CCCCCCC [diC8-PtdIns(3,4,5)P3]
